Reference: patent publication US20220324862A1, “PYRIDOPYRIMIDINONE COMPOUNDS” (Acerand Therapeutics (USA) Limited, priority 2021, published 2022)

What was measured:
NCI-H1975 cells = test: 3D cell proliferation assay; type: cell-based; conditions: Homo sapiens, ultra low attachment plate, 96 hours, 3D CTG
Procedure: This assay supports the molecular mode of action of compounds. Low IC50 values are indicative of high potency of the SOS1 inhibition. […] This supports the molecular mode of action of the SOS1 inhibitors as selectively targeting cancer cells dependent on receptor tyrosine kinase-RAS/SOS1-family protein function. Cell proliferation assays were performed in three-dimensional (3D) anchorage-independent conditions in 96 well ultra-low attachment plate with the following human cell lines:
NCI-H1975: human non-small cell lung cancer (NSCLC) with wild type KRAS and EGFR L858R/T790M mutation;
Cell lines were purchased from the American Type Culture Collection (ATCC), NCI, or European Collection of Authenticated Cell Cultures (ECACC). All cell lines were maintained in RPMI-1640 or DMEM with 10% heat inactivated fetal bovine serum.
Cells growing in log phase were detached with Gibco™ TrypLE™ Express Enzyme and plated in 96 well ultra low attachment plate at 15000 to 20000 cells/well in 100 μl of media. After overnight incubation at 37° C. and 5% CO2, the cells were treated with compounds (50 μL/well) at the final concentrations spanning 1 nM to 20 μM. Cells were incubated at 37° C., 5% CO2 and 95% humidity incubator for 96 hours. At the end of incubation, a 3D CTG reagent from Promega was added to each well according to vendors recommendation and mixed for 10 minutes in dark. The luminescence signals were determined using Biotek plate reader. The data was fitted using a sigmoidal curve analysis program (GraphPAD Prism) with variable hill slope.

[1] = tested on: cellular pERK in NCI-H1975 cells (EGFR/L858R-T790M); test: pERK Potency Assay; type: cell-based; conditions: Homo sapiens, 1 hour incubation, Western blot, read-out: IC50 value, cellular pERK level
From the text: The purpose of this assay is to measure the ability of test compounds to inhibit SOS1 function in cells. SOS1 activates RAS proteins by catalyzing the conversion of RAS-GDP to RAS-GTP in response to receptor tyrosine kinase activation. Activation of RAS induces a sequence of cellular signaling events that results in increased phosphorylation of ERK at Threonine 202 and Tyrosine 204 (pERK). The procedure described below measured the level of cellular pERK in response to test compounds in NCI-H1975 cells (EGFR/L858R-T790M).
NCI-H1975 cells were grown and maintained using media and procedures recommended by the ATCC. On the day prior to compound addition, cells were plated in 24-well cell culture plates (0.9 ml/well) and grown overnight in a 37° C., 5% CO2 incubator. Test compounds were prepared with 3-fold serial dilutions in DMSO, with a top concentration of 10 mM. On the day of the assay, 100 uL of each test compound diluted at 1:100 in media was added to each well of cell culture plate with final concentrations of the compound spanning 0.5 nM to 10 uM. After the compound was added, the cells were incubated for 1 hour at 37° C., 5% CO2. Following incubation, culture medium was removed, and the cells were washed once with phosphate buffered saline and lysed with lysis buffer (20 mM Tris-HCl, pH 7.5, 150 mM NaCl, 1 mM EDTA, 1 mM EGTA, 0.8% NP-40 plus 2× protease and phosphatase inhibitors). Cellular pERK level was determined using the Western blot analysis and quantified with Liqor software. Signal from Western blot was plotted and IC50 values were determined by fitting a 4-parameter sigmoidal concentration response model.

Row | IC50 (NCI-H1975 cells) [µM] | IC50 [1] [µM] | SMILES
1 | < 0.1 | < 0.1 | C#C[C@@H](Nc1nc(C)nc2c1cc(C1(OC)CCN(C(C)=O)CC1)c(=O)n2C)c1cccc(C(F)(F)F)c1C [Compound 55, 6-(1-acetyl-4-methoxypiperidin-4-yl)-2,8-dimethyl-4-{[(1R)-1-[2-methyl-3-(trifluoromethyl)phenyl]prop-2-yn-1-yl]amino}-7H,8H-pyrido[2,3-d]pyrimidin-7-one]
2 | < 0.1 | < 0.1 | C#C[C@@H](Nc1ncnc2c1cc(C1(OC)CCN(C(C)=O)C1)c(=O)n2C)c1cccc(C(F)F)c1F (stereo partly drawn) [Compound 49, 6-(1-acetyl-3-methoxypyrrolidin-3-yl)-4-{[(1R)-1-[3-(difluoromethyl)-2-fluorophenyl]prop-2-yn-1-yl]amino}-8-methyl-7H,8H-pyrido[2,3-d]pyrimidin-7-one]
3 | < 0.1 | < 0.1 | C#C[C@@H](Nc1ncnc2c1cc(C1(OC)CCN(C(C)=O)CC1)c(=O)n2C)c1cccc(C(F)F)c1F [Compound 48, (R)-6-(1-acetyl-4-methoxypiperidin-4-yl)-4-((1-(3-(difluoromethyl)-2-fluorophenyl)prop-2-yn-1-yl)amino)-8-methylpyrido[2,3-d]pyrimidin-7(8H)-one]
4 | 0.1 to 0.5 | < 0.1 | C#C[C@@H](Nc1nc(C)nc2cc(=O)n(C3CCOCC3)cc12)c1cccc(C(F)(F)F)c1C [Compound 4, (R)-2-methyl-4-((1-(2-methyl-3-(trifluoromethyl)phenyl)prop-2-yn-1-yl)amino)-6-(tetrahydro-2H-pyran-4-yl)pyrido[4,3-d]pyrimidin-7(6H)-one]
5 | < 0.1 | < 0.1 | C#C[C@@H](Nc1ncnc2c1cc(C1(NC(C)=O)CCOCC1)c(=O)n2C)c1cccc(C(F)(F)F)c1C [Compound 58, (R)-N-(4-(8-methy-4-((1-(2-methyl-3-(trifluoromethyl)phenyl)prop-2-yn-1-yl}amino)-7-oxo-7,8-dihydropyrido[2,3-d]pyrimidin-6-yl)tetrahydro-2H-pyran-4-yl)acetamide]
6 | < 0.1 | < 0.1 | C#C[C@@H](Nc1nc(C)nc2c1cc(C1(F)CCN(C(C)=O)CC1)c(=O)n2C)c1cccc(C(F)(F)F)c1C [Compound 56, 6-(1-acetyl-4-fluoropiperidin-4-yl)-2,8-dimethyl-4-{[(1R)-1-[2-methyl-3-(trifluoromethyl)phenyl]prop-2-yn-1-yl]amino}-7H,8H-pyrido[2,3-d]pyrimidin-7-one]
7 | < 0.1 | < 0.1 | C#C[C@@H](Nc1nc(C)nc2c1cc(C1(O)CCN(C(C)=O)CC1)c(=O)n2C)c1cccc(C(F)(F)F)c1C [Compound 54, 6-(1-acetyl-4-hydroxypiperidin-4-yl)-2,8-dimethyl-4-{[(1R)-1-[2-methyl-3-(trifluoromethyl)phenyl]prop-2-yn-1-yl]amino}-7H,8H-pyrido[2,3-d]pyrimidin-7-one]
8 | < 0.1 | 0.1 to 0.5 | C#C[C@@H](Nc1nc(C)nc2cc(=O)n(C3(C(F)F)CC3)cc12)c1cccc(C(F)(F)F)c1C [Compound 9, (R)-6-(1-(difluoromethyl)cyclopropyl)-2-methyl-4-((1-(2-methyl-3-(trifluoromethyl)phenyl)prop-2-yn-1-yl)amino)pyrido[4,3-d]pyrimidin-7(6H)-one]
9 | < 0.1 | < 0.1 | C#C[C@@H](Nc1ncnc2c1cc(C1(NC(C)=O)CCN(C(C)=O)CC1)c(=O)n2C)c1cccc(C(F)(F)F)c1C [Compound 57, (R)-N-(1-acetyl-4-(8-methy-4-((1-(2-methyl-3-(trifluoromethyl)phenyl)prop-2-yn-1-yl)amino)-7-oxo-7,8-dihydropyrido[2,3-d]pyrimidin-6-yl)piperidin-4-yl)acetamide]
10 | < 0.1 | < 0.1 | C#C[C@@H](Nc1ncnc2c1cc(C1(O)CCN(C(C)=O)CC1)c(=O)n2C)c1cccc(C(F)F)c1F [Compound 46, 6-(1-acetyl-4-hydroxypiperidin-4-yl)-4-{[(1R)-1-[3-(difluoromethyl)-2-fluorophenyl]prop-2-yn-1-yl]amino}-8-methyl-7H,8H-pyrido[2,3-d]pyrimidin-7-one]
11 | 0.1 to 0.5 | < 0.1 | C#C[C@@H](Nc1ncnc2c1cc(C1(O)CCN(C(C)=O)C1)c(=O)n2C)c1cccc(C(F)F)c1F (stereo partly drawn) [Compound 43, 6-(1-acetyl-3-hydroxypyrrolidin-3-yl)-4-{[(1R)-1-[3-(difluoromethyl)-2-fluorophenyl]prop-2-yn-1-yl]amino}-8-methyl-7H,8H-pyrido[2,3-d]pyrimidin-7-one]
